In ChEMBL document CHEMBL6074711, “Design, Synthesis, and Activity Evaluation of C-23-Modified 5-O-Mycaminosyltylonolide Derivatives” (ACS Med Chem Lett, 2024):
Converted amounts (≈) assume the structure as drawn. One block for each compound: values may come before it.

What was measured:
Type in all cases: functional
Settings in all cases: time 16-20 hrs
[1] = system: Staphylococcus aureus; assay: Antibacterial activity against Staphylococcus aureus ATCC25923 incubated for 16 to 20 hrs by broth microdilution method
[2] = system: Escherichia coli; assay: Antibacterial activity against Escherichia coli ATCC25922 incubated for 16 to 20 hrs by broth microdilution method
[3] = system: Enterococcus faecalis; assay: Antibacterial activity against Enterococcus faecalis ATCC29212 incubated for 16 to 20 hrs by broth microdilution method
[4] = system: Stenotrophomonas maltophilia; assay: Antibacterial activity against Stenotrophomonas maltophilia ATCC17808 incubated for 16 to 20 hrs by broth microdilution method
[5] = system: Staphylococcus aureus; assay: Antibacterial activity against drug-resistant Staphylococcus aureus clinical isolate M20 incubated for 16 to 20 hrs by broth microdilution method
[6] = system: Escherichia coli; assay: Antibacterial activity against drug-resistant Escherichia coli clinical isolate 1322 incubated for 16 to 20 hrs by broth microdilution method
[7] = system: Escherichia coli; assay: Antibacterial activity against drug-resistant Escherichia coli clinical isolate 1333 incubated for 16 to 20 hrs by broth microdilution method

Compound: CC[C@H]1OC(=O)C[C@@H](O)[C@H](C)[C@@H](O[C@@H]2O[C@H](C)[C@@H](O)[C@H](N(C)C)[C@H]2O)[C@@H](CCN(C)Cc2cn(-c3cnc4ccccc4c3)nn2)C[C@@H](C)C(=O)/C=C/C(C)=C/[C@@H]1CNc1ccc2ccccc2c1
MIC [1]: 4 µg/mL (≈ 4.23 µM) | MIC [2]: 8 µg/mL (≈ 8.45 µM) | MIC [3]: 8 µg/mL (≈ 8.45 µM) | MIC [4]: 4 µg/mL (≈ 4.23 µM)

Compound: CC[C@H]1OC(=O)C[C@@H](O)[C@H](C)[C@@H](O[C@@H]2O[C@H](C)[C@@H](O)[C@H](N(C)C)[C@H]2O)[C@@H](CCN(C)Cc2cn(-c3cnc4ccccc4c3)nn2)C[C@@H](C)C(=O)/C=C/C(C)=C/[C@@H]1CN1CCCc2ccccc21
MIC [1]: 2 µg/mL (≈ 2.14 µM) | MIC [2]: 2 µg/mL (≈ 2.14 µM) | MIC [3]: 2 µg/mL (≈ 2.14 µM) | MIC [4]: 4 µg/mL (≈ 4.27 µM)

Compound: CC[C@H]1OC(=O)C[C@@H](O)[C@H](C)[C@@H](O[C@@H]2O[C@H](C)[C@@H](O)[C@H](N(C)C)[C@H]2O)[C@@H](CC=O)C[C@@H](C)C(=O)/C=C/C(C)=C/[C@@H]1CO
MIC [1]: 0.5 µg/mL (≈ 0.836 µM) | MIC [2]: > 32 µg/mL | MIC [3]: 0.5 µg/mL (≈ 0.836 µM) | MIC [4]: > 32 µg/mL | MIC [5]: 1 µg/mL (≈ 1.67 µM) | MIC [6]: > 32 µg/mL | MIC [7]: > 32 µg/mL

Compound: CC[C@H]1OC(=O)C[C@@H](O)[C@H](C)[C@@H](O[C@@H]2O[C@H](C)[C@@H](O)[C@H](N(C)C)[C@H]2O)[C@@H](CCN2C[C@H](C)C[C@H](C)C2)C[C@@H](C)C(=O)/C=C/C(C)=C/[C@@H]1CO[C@@H]1O[C@H](C)[C@@H](O)[C@@H](OC)[C@H]1OC [TILMICOSIN]
MIC [1]: 1 µg/mL (≈ 1.15 µM) | MIC [2]: > 32 µg/mL | MIC [3]: 1 µg/mL (≈ 1.15 µM) | MIC [4]: > 32 µg/mL

Compound: CC[C@H]1OC(=O)C[C@@H](O)[C@H](C)[C@@H](O[C@@H]2O[C@H](C)[C@@H](O)[C@H](N(C)C)[C@H]2O)[C@@H](CCNCc2cn(-c3cnc4ccccc4c3)nn2)C[C@@H](C)C(=O)/C=C/C(C)=C/[C@@H]1CNCc1ccccc1
MIC [1]: 2 µg/mL (≈ 2.23 µM) | MIC [2]: 1 µg/mL (≈ 1.12 µM) | MIC [3]: 2 µg/mL (≈ 2.23 µM) | MIC [4]: 1 µg/mL (≈ 1.12 µM)

Compound: CC[C@H]1OC(=O)C[C@@H](O)[C@H](C)[C@@H](O[C@@H]2O[C@H](C)[C@@H](O)[C@H](N(C)C)[C@H]2O)[C@@H](CCNCc2cn(-c3cnc4ccccc4c3)nn2)C[C@@H](C)C(=O)/C=C/C(C)=C/[C@@H]1CNCc1ccc(Br)cc1
MIC [1]: 1 µg/mL (≈ 1.03 µM) | MIC [2]: 2 µg/mL (≈ 2.05 µM) | MIC [3]: 2 µg/mL (≈ 2.05 µM) | MIC [4]: 2 µg/mL (≈ 2.05 µM)

Compound: CC[C@H]1OC(=O)C[C@@H](O)[C@H](C)[C@@H](O[C@@H]2O[C@H](C)[C@@H](O)[C@H](N(C)C)[C@H]2O)[C@@H](CCNCc2cn(-c3cnc4ccccc4c3)nn2)C[C@@H](C)C(=O)/C=C/C(C)=C/[C@@H]1CNc1ccc(C)cc1
MIC [1]: 2 µg/mL (≈ 2.23 µM) | MIC [2]: 2 µg/mL (≈ 2.23 µM) | MIC [3]: 2 µg/mL (≈ 2.23 µM) | MIC [4]: 8 µg/mL (≈ 8.93 µM)

Compound: CC[C@H]1OC(=O)C[C@@H](O)[C@H](C)[C@@H](O[C@@H]2O[C@H](C)[C@@H](O)[C@H](N(C)C)[C@H]2O)[C@@H](CCNCc2cn(-c3cnc4ccccc4c3)nn2)C[C@@H](C)C(=O)/C=C/C(C)=C/[C@@H]1CN1CCCCCCC1
MIC [1]: 0.5 µg/mL (≈ 0.554 µM) | MIC [2]: 2 µg/mL (≈ 2.22 µM)

Compound: CC[C@H]1OC(=O)C[C@@H](O)[C@H](C)[C@@H](O[C@@H]2O[C@H](C)[C@@H](O)[C@H](N(C)C)[C@H]2O)[C@@H](CCNCc2cn(-c3cnc4ccccc4c3)nn2)C[C@@H](C)C(=O)/C=C/C(C)=C/[C@@H]1CNc1ccc(Br)cc1
MIC [1]: 2 µg/mL (≈ 2.08 µM) | MIC [2]: 1 µg/mL (≈ 1.04 µM) | MIC [3]: 2 µg/mL (≈ 2.08 µM) | MIC [4]: 1 µg/mL (≈ 1.04 µM)

More lines, now with the values ahead:

MIC [1]: 1 µg/mL (≈ 1.06 µM) | MIC [2]: 1 µg/mL (≈ 1.06 µM) | MIC [3]: 1 µg/mL (≈ 1.06 µM) | MIC [4]: 1 µg/mL (≈ 1.06 µM)
Compound: CC[C@H]1OC(=O)C[C@@H](O)[C@H](C)[C@@H](O[C@@H]2O[C@H](C)[C@@H](O)[C@H](N(C)C)[C@H]2O)[C@@H](CCN(C)Cc2cn(-c3cnc4ccccc4c3)nn2)C[C@@H](C)C(=O)/C=C/C(C)=C/[C@@H]1CNCc1cc(F)cc(F)c1

MIC [1]: 2 µg/mL (≈ 2.05 µM) | MIC [2]: 4 µg/mL (≈ 4.1 µM) | MIC [3]: 4 µg/mL (≈ 4.1 µM) | MIC [4]: 4 µg/mL (≈ 4.1 µM)
Compound: CC[C@H]1OC(=O)C[C@@H](O)[C@H](C)[C@@H](O[C@@H]2O[C@H](C)[C@@H](O)[C@H](N(C)C)[C@H]2O)[C@@H](CCN(C)Cc2cn(-c3cnc4ccccc4c3)nn2)C[C@@H](C)C(=O)/C=C/C(C)=C/[C@@H]1CNc1ccc(Br)cc1

MIC [1]: 2 µg/mL (≈ 2.12 µM) | MIC [2]: 1 µg/mL (≈ 1.06 µM) | MIC [3]: 2 µg/mL (≈ 2.12 µM) | MIC [4]: 4 µg/mL (≈ 4.23 µM)
Compound: CC[C@H]1OC(=O)C[C@@H](O)[C@H](C)[C@@H](O[C@@H]2O[C@H](C)[C@@H](O)[C@H](N(C)C)[C@H]2O)[C@@H](CCN(C)Cc2cn(-c3cnc4ccccc4c3)nn2)C[C@@H](C)C(=O)/C=C/C(C)=C/[C@@H]1CNCc1ccc(Cl)cc1

MIC [1]: 1 µg/mL (≈ 1.07 µM) | MIC [2]: 2 µg/mL (≈ 2.15 µM) | MIC [3]: 2 µg/mL (≈ 2.15 µM) | MIC [4]: 1 µg/mL (≈ 1.07 µM)
Compound: CC[C@H]1OC(=O)C[C@@H](O)[C@H](C)[C@@H](O[C@@H]2O[C@H](C)[C@@H](O)[C@H](N(C)C)[C@H]2O)[C@@H](CCNCc2cn(-c3cnc4ccccc4c3)nn2)C[C@@H](C)C(=O)/C=C/C(C)=C/[C@@H]1CNCc1ccc(Cl)cc1
